Data from ChEMBL document CHEMBL1201862, “PubChem BioAssay data set” (2004).
The source made the active and inactive calls.

Key:
[1] = cells; type: functional, cell-based
[2] = molecular target: Steroidogenic factor 1 (Homo sapiens, UniProt Q13285); test: Counterscreen for inverse agonists of the liver receptor homolog-1 (LRH-1; NR5A2): Luminescence-based cell-based high throughput dose response assay to identify inverse agonists of the Steroidogenic Factor 1 Nuclear Receptor (SF1; NR5A1).; type: functional
[3] = cells; type: functional, cell-based; remark: listed apart in the source
[4] = nonselective StAR promoter luciferase inhibitors – cell-based, luminescence, luciferase reporter, counter-screen for LRH-1 inverse agonist project, dose response (AID 651969); type: functional
[5] = molecular target: Nuclear receptor subfamily 5 group A member 2 (Homo sapiens, UniProt O00482); type: functional, cell-based;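 further: HEK293T cells transfected with LRH-1 and a StAR promoter luciferase reporter; potency for inhibitors that lower LRH-1 driven reporter light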
[6] = molecular target: T1, Probable nicotinate-nucleotide adenylyltransferase (Staphylococcus aureus (strain N315), UniProt P65502); type: functional, Staphylococcus aureus subsp. aureus N315; conditions: read-out: IC50_Mean;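 on IC50 Mean: confirmatory dose-response retesting of NadD inhibitor hits first found in an ultra-high-throughput screen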
[7] = molecular target: T1, Probable nicotinate-nucleotide adenylyltransferase; type: functional, Staphylococcus aureus subsp. aureus N315
[8] = molecular target: T2, Small ubiquitin-related modifier 2 (Homo sapiens, UniProt P61956); test: disruption of SUMO2 interaction with SIM peptide – biochemical, fluorescence polarization, uHTS hits, selectivity assay for SUMO1 interaction inhibitor project, dose response (AID 624385); type: functional; conditions: read-out: IC50_Mean
[9] = molecular target: T3, Small ubiquitin-related modifier 1 (Homo sapiens, UniProt P63165); test: SUMO1 protein interaction blockers, potency – biochemical, fluorescence polarization, uHTS hits, dose response (AID 624382); type: functional; conditions: read-out: IC50_Mean
[10] = molecular target: T2, Small ubiquitin-related modifier 2; test: SUMO2 binding disruption by SUMO1 hits – biochemical, FRET, human SUMO2, uHTS hits, selectivity assay for SUMO1 interaction inhibitor project, dose response (AID 624384); type: functional; conditions: read-out: IC50_Mean
[11] = molecular target: T3, Small ubiquitin-related modifier 1; test: SUMO1 protein-protein binding blockers, potency – biochemical, FRET, dose response (AID 624383); type: functional; conditions: read-out: IC50_Mean
[12] = molecular target: T4, Carboxy-terminal domain RNA polymerase II polypeptide A small phosphatase 1 (Homo sapiens, UniProt Q9GZU7); test: CTDSP1 inhibitors, concentration-response, biochemical, absorbance readout, ultra-high-throughput screen actives (AID 540297); type: functional
T4 sequence (Q9GZU7 whole entry): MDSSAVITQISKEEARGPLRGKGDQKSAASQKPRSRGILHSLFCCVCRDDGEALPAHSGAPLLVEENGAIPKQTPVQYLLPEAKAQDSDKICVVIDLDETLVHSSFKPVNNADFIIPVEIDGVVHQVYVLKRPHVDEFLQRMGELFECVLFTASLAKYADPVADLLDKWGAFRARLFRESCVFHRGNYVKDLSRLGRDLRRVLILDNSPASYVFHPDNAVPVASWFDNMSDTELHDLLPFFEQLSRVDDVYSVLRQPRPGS

[13] = molecular target: SWI/SNF-related matrix-associated actin-dependent regulator of chromatin subfamily A member 2 (Homo sapiens, UniProt P51531); test: Luminescence-based cell-based high throughput dose response assay to identify activators of the function of SWI/SNF related, matrix associated, actin dependent regulator of chromatin, subfamily a, member 2 (SMARCA2, BRM).; type: functional
[14] = cAMP pathway inhibition in counterscreen cell line – TR-FRET cAMP detection, counter-screen for MC4R biased antagonist project, dose response (AID 602305); type: functional, cell-based;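 further: U2OS cells stimulated with forskolin near its EC80 as the cAMP inducer; potency is for inhibition of forskolin-stimulated cAMP signaling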
[15] = molecular target: T5, Heat shock factor protein 1 (Mus musculus, UniProt P38532); test: enhancement of HSF1-driven luciferase signal – cell-based, NIH3T3, luminescence, dose retest, confirmation (AID 435004); type: functional;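 further: stress induced by proteasome inhibitor MG132 added 30 min after compound; luciferase reporter driven by HSF1 response element in NIH3T3 cells; actives raise luminescence as potentiators of the MG132 stress response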
T5 sequence (P38532 whole entry): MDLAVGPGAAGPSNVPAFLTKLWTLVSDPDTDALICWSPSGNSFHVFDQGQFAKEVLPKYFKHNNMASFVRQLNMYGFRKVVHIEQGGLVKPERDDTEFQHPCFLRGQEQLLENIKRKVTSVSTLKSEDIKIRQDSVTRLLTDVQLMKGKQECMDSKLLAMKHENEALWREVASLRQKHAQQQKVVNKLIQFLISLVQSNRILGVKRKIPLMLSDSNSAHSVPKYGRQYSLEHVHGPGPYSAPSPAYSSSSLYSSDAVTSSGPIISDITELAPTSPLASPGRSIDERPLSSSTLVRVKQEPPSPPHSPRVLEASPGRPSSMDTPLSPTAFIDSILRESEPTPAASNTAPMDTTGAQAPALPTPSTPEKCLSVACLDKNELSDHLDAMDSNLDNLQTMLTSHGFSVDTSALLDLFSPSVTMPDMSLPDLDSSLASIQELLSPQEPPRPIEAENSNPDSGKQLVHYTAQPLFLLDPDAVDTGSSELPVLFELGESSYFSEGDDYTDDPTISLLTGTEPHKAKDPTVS

[16] = molecular target: Melanocortin receptor 4 (Homo sapiens, UniProt P32245); test: inhibitors of MC4R cAMP signaling – cell-based, TR-FRET, biased antagonists, dose response (AID 602298); type: functional;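 further: antagonist potency against agonist-stimulated cAMP production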
[17] = molecular target: T6, Polyadenylate-binding protein 1 (Homo sapiens, UniProt P11940); test: MLLE domain peptide-binding blockers, IC50 – biochemical, fluorescence polarization, FITC-PAM2 peptide, dose response (AID 602259); type: functional; conditions: read-out: IC50_Mean
[18] = molecular target: T6, Polyadenylate-binding protein 1; test: MLLE binding blockers, Cy5 peptide tracer – biochemical, fluorescence polarization, Cy5-PAM2 peptide, secondary, miRNA deadenylation inhibitor project, dose response (AID 602260); type: functional; conditions: read-out: IC50_Mean
[19] = Counterscreen for activators of the function of SWI/SNF related, matrix associated, actin dependent regulator of chromatin, subfamily a, member 2 (SMARCA2, BRM): Luminescence-based cell-based high throughput dose response assay to identify non-selective compounds using the VP16 reporter assay.; type: functional
[20] = molecular target: T7, Replicative DNA helicase DnaB (Mycobacterium tuberculosis, UniProt P9WMR3); test: DnaB intein splicing inhibitors, dose response, biochemical, cell-free fluorescence (AID 449749); type: functional
T7 sequence (P9WMR3 whole entry): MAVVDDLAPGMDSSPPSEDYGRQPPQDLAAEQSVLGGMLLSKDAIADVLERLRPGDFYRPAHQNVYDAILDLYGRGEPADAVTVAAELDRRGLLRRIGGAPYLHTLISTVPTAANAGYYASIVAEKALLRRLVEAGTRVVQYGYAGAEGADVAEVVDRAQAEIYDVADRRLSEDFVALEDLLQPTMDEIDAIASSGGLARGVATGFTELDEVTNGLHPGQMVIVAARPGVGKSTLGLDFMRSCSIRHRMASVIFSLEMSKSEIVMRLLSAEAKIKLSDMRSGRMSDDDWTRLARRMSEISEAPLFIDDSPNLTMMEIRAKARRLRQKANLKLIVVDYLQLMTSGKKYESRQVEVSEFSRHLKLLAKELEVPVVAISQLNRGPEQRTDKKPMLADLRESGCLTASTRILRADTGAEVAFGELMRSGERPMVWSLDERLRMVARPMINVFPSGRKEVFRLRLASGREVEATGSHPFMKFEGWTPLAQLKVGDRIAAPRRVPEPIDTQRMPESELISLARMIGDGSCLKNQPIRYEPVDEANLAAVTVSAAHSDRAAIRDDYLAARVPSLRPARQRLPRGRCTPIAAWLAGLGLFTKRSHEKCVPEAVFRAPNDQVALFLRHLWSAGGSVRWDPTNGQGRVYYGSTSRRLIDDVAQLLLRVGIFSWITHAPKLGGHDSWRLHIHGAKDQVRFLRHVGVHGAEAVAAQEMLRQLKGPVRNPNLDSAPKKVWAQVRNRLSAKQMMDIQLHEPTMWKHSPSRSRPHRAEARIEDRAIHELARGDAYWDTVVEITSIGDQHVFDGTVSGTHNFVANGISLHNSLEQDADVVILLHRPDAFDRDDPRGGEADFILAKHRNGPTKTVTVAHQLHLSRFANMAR

[21] = molecular target: T8, Protein RecA (Mycobacterium tuberculosis, UniProt P9WHJ3); test: Fluorescence Cell-Free Homogeneous Dose Retest to Identify Inhibitors of RecA-Intein Splicing Activity. [Related pubchem assays (depositor defined):AID2097, AID2223, AID489010, AID492950]; type: functional
T8 sequence (P9WHJ3 whole entry): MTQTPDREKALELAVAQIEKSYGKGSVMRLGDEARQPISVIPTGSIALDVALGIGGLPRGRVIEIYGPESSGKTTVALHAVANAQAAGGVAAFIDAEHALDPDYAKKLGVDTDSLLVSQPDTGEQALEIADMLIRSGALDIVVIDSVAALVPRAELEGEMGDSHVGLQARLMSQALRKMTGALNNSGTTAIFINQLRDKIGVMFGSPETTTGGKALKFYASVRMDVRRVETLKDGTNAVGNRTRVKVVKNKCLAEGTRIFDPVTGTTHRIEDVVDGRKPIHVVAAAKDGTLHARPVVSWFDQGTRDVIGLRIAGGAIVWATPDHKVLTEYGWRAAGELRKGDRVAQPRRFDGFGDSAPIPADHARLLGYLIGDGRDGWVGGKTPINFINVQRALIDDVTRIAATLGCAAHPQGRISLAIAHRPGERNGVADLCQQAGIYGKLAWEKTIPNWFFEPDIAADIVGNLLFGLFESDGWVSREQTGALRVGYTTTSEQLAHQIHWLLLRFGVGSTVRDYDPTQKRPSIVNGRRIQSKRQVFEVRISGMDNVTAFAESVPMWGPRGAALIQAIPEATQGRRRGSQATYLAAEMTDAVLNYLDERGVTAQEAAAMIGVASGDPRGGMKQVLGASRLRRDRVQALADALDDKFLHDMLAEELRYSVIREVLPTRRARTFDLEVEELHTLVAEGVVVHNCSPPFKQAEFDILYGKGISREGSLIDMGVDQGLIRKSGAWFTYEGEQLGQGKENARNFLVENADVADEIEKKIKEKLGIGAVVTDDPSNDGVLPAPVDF

[22] = cells; type: functional, cell-based; remark: listed apart in the source
[23] = molecular target: T9, Nuclear receptor subfamily 0 group B member 1 (Homo sapiens, UniProt P51843); type: functional, cell-based;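 further: HEK293T cells transfected with SF-1 and DAX-1 plus StAR promoter luciferase reporter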
T9 sequence (P51843 whole entry): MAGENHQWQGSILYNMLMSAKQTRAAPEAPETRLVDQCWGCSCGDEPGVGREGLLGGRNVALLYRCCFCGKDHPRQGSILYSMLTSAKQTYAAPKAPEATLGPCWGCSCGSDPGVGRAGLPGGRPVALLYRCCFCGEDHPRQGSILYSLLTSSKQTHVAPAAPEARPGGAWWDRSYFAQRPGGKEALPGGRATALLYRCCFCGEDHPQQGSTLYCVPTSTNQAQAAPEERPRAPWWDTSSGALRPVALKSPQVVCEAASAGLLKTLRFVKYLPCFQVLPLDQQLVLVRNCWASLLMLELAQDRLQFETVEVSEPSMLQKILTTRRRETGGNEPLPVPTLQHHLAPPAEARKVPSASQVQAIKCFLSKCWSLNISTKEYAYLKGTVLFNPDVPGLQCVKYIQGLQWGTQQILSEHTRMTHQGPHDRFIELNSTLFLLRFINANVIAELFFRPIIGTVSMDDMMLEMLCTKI

T3 sequence (P63165 whole entry): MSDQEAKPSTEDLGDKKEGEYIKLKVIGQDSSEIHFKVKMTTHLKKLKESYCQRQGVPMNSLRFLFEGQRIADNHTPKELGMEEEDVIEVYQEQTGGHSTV
T1 sequence (P65502 whole entry): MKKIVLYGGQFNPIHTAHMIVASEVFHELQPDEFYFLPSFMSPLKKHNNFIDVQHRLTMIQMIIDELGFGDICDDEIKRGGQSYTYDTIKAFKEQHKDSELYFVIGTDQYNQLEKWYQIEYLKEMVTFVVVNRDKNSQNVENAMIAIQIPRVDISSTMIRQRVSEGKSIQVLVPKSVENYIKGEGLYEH
T2 sequence (P61956 whole entry): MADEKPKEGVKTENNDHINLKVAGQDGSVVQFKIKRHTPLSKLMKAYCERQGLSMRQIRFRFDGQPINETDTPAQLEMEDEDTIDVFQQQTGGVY
T6 sequence (P11940 whole entry, the tested form may be a part): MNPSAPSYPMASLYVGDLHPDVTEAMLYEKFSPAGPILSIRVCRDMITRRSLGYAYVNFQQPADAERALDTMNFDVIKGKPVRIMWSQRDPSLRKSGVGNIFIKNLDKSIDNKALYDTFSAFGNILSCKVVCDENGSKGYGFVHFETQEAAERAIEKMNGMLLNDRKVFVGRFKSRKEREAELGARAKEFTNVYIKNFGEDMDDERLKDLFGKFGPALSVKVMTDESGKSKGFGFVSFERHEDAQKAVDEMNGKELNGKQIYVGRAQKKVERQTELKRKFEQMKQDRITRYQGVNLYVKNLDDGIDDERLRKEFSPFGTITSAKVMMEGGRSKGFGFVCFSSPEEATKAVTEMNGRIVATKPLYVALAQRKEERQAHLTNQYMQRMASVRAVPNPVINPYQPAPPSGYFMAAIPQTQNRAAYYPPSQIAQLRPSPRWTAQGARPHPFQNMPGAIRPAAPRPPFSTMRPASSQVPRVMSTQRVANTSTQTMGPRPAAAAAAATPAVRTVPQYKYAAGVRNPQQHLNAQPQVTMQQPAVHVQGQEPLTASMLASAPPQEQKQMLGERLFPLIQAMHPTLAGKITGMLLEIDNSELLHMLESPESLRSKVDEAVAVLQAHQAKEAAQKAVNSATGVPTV
Sequence of Nuclear receptor subfamily 5 group A member 2 (O00482 whole entry): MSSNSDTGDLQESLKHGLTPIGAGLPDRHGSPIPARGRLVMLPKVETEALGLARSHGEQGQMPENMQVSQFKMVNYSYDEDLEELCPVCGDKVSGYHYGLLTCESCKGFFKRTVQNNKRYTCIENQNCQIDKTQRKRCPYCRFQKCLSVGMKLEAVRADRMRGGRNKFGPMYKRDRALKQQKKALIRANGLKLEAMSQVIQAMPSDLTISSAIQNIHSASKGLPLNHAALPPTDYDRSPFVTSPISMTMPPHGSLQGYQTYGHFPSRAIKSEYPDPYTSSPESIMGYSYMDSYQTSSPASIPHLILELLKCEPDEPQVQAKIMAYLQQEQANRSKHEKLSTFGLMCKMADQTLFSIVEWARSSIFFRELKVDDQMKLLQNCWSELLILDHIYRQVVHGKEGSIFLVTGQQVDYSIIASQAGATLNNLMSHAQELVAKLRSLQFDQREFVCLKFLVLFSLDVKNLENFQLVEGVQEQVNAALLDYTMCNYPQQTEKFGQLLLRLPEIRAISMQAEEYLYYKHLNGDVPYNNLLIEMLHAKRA
Sequence of Melanocortin receptor 4 (P32245 whole entry, the tested form may be a part): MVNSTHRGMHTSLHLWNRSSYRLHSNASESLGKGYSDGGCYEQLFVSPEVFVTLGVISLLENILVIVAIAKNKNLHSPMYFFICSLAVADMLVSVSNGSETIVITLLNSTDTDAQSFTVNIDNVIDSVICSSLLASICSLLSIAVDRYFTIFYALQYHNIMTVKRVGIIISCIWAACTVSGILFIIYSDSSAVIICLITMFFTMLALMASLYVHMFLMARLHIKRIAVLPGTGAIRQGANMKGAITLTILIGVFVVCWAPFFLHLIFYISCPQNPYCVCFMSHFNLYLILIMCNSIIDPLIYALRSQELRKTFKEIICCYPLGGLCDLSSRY
Sequence of SWI/SNF-related matrix-associated actin-dependent regulator of chromatin subfamily A member 2 (P51531 whole entry): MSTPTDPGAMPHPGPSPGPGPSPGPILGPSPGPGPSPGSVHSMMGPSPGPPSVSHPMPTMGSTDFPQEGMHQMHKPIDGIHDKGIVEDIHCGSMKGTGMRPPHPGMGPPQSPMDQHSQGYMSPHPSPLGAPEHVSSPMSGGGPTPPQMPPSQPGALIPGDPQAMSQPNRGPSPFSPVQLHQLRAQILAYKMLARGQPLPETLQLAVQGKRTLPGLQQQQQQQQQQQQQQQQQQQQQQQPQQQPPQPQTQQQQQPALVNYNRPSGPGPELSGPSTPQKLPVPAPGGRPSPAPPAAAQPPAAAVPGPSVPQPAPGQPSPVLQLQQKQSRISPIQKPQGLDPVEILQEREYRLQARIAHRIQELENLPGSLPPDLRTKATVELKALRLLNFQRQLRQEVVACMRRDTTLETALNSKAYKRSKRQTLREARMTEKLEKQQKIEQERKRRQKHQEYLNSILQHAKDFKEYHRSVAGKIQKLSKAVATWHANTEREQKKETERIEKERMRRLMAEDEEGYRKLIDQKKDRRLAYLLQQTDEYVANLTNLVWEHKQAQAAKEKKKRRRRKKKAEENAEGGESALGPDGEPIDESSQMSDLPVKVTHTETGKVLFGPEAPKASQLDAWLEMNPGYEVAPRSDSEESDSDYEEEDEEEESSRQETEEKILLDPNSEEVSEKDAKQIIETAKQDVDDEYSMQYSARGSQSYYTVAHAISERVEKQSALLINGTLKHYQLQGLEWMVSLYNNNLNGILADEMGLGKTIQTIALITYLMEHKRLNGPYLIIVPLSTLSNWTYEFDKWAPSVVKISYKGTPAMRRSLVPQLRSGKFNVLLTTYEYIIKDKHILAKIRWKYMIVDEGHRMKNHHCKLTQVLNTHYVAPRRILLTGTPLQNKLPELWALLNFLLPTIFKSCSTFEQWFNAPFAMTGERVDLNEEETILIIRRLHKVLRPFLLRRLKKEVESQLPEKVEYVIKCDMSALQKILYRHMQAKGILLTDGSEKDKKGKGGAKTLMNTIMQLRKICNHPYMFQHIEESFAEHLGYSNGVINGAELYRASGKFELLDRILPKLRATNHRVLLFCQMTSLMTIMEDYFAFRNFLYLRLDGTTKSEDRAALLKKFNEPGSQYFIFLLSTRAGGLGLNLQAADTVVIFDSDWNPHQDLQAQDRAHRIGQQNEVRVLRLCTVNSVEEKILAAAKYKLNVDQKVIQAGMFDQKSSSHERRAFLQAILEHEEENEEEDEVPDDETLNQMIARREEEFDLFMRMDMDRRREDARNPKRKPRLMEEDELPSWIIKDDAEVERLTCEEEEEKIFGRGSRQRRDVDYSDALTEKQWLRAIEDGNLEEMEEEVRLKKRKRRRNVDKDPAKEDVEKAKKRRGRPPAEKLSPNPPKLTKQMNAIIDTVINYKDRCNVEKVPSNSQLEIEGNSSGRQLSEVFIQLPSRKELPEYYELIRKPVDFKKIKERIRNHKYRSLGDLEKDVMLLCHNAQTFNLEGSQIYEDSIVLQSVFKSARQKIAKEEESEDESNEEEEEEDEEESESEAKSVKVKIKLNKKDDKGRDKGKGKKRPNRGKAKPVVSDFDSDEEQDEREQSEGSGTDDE
Sequence of Steroidogenic factor 1 (Q13285 whole entry): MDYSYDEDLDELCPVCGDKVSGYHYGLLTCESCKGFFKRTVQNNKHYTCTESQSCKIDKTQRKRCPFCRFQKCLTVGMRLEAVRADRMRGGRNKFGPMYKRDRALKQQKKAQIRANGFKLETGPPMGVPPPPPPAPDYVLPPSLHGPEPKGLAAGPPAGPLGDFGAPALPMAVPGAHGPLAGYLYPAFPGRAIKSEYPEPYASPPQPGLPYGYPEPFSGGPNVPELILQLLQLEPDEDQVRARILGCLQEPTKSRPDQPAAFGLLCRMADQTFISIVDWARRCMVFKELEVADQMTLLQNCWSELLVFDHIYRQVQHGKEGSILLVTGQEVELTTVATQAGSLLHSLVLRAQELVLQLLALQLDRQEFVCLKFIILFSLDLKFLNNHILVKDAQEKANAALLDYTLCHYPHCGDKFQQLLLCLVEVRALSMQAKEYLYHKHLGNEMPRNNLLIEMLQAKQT

With `COc1ccc(NC(=O)CSc2[nH]cnc3nncc2-3)cc1` the EC50 [1] was > 350 µM (not active), the IC50 [2] was 1.73 µM (active) and the EC50 [3] was > 350 µM (not active). The IC50 [4] was 35.9 µM (inactive) and the IC50 [5] was 1.37 µM (active).
With `O=C1N=c2ccccc2=C1Nc1ccc(S(=O)(=O)Nc2nccs2)cc1` the IC50 [6] was 15.5 µM (active), the IC50 [7] was 5.32 µM (active) and the IC50 [8] was 9.54 µM (active). For the same compound, the IC50 [9] was 11 µM (active), the IC50 [10] was 46.1 µM (inactive) and the IC50 [11] was 51 µM (inactive). For the same compound, the IC50 [12] was 4.2 µM (active).
For `CC(=O)Nc1cccc(NC(=O)CSc2ncc(C(=O)Nc3ccccc3)c(=O)n2C)c1`, the EC50 [13] was > 91.1 µM (inactive), the IC50 [14] was > 64.6 µM (inactive) and the EC50 [15] was 12.8 µM (active). For the same compound, the IC50 [16] was > 64.6 µM (inactive), the IC50 [17] was > 66 µM (inactive) and the IC50 [18] was > 66 µM (inactive). For the same compound, the EC50 [19] was > 91.1 µM (inactive), the AC50 [20] was 6.51 µM (active) and the EC50 [21] was 1.61 µM (active).
With `O=C(CCN1C(=O)/C(=C\C=C\c2ccccc2)SC1=S)Nc1cccc(C(=O)O)c1` the IC50 [22] was > 67.5 µM (inactive), the IC50 [23] was > 67.5 µM (inactive) and the IC50 [12] was 4.8 µM (active).
